Structures can show the parent of a compound that is named as a salt.

The record followed here is patent US9403776B2, “Aryl- and heteroaryl-substituted tetrahydrobenzazepines and use thereof to block reuptake of norepinephrine, dopamine, and serotonin” (Albany Molecular Research, Inc., priority 2005, dated 2016).

`Cc1ccc(-c2ccc3c(c2)CN(C)CCC3c2cccc(F)c2)nn1` (single isomer, unassigned; (-)) (as salt: citrate) [Example 84 (−), (−)-5-(3-fluorophenyl)-2-methyl-8-(6-methylpyridazin-3-yl)-2,3,4,5-tetrahydro-1H-benzo[c]azepine] yielded a melting point of 107 to 110 °C. The figure for `CN1CCC(c2ccc(Cl)cc2)c2ccc(N3CCOCC3)cc2C1` (single isomer, unassigned; (-)) (as salt: maleate) [Example 47, (−)-4-(5-(4-chlorophenyl)-2-methyl-2,3,4,5-tetrahydro-1H-benzo[c]azepin-8-yl)morpholine] is 99 to 100 °C. The figure for `COc1ccc2c(c1)CNCCC2c1ccccc1` (racemic) (as salt: maleate) [Example 53, (+/−)-8-methoxy-5-phenyl-2,3,4,5-tetrahydro-1H-benzo[c]azepine] is 154 to 156 °C.
